The target in data set [1] is NPFF1 receptor (human NPFFR1-CHO cells) (Homo sapiens, UniProt Q9GZQ6). Put plainly: Lance cAMP functional Ke assay, NPFF1. The format is cell-based. As to conditions: for Kb: Table 5. On the procedure: (§1) Kinetic solubility and bidirectional MDCK-MDR1 permeability assays of the compounds were performed by Paraza Pharma Inc. (Montreal, Canada) according to their standard protocols.
(§2) cAMP assay. Stable human NPFFR1-CHO (ES-491-C) and NPFFR2-CHO (ES-490-C) cell lines were purchased from PerkinElmer and used with the Lance@ Ultra kit (TRF0262) to detect cAMP accumulation in low volume 96-well plates. Stimulation buffer containing 1× HBSS, 5 mM HEPES, 0.1% BSA stabilizer, and 0.5 mM IBMX was prepared and titrated to 7.4 at room temperature.
(§3) A single concentration of each test compound was prepared at 4× the desired final concentration in 2% DMSO/stimulation buffer and 5 μL was added to the assay plate.
(§4) Cells were lifted with versene and spun at 270 g for 10 minutes. The cell pellet was resuspended in stimulation buffer and 4,000 cells (10 μL) were added to each well. After incubating for 30 min at RT, Eu-cAMP tracer and uLIGHT-anti-cAMP working solutions were added per the manufacturer's instructions. After incubation at RT for 1 hour, the TR-FRET signal (ex 337 nm) was read on a CLARIOstar multimode plate reader (BMG Biotech, Cary NC).
(§5) Fluorescence values at 665 nm were plotted against the log of compound concentration using a nonlinear regression analysis to generate EC50 values (GraphPad Prism, GraphPad Software, Inc., San Diego CA). Ke values were calculated using the same equation as described in the calcium mobilization methods.

The target of data set [2] is NPFF2 receptor (human NPFFR2-CHO cells) (Homo sapiens, UniProt Q9Y5X5). Put plainly: Lance cAMP functional Ke assay, NPFF2. The format is cell-based. As to conditions: for Kb: Table 5. On the procedure:
as §1, §2, §3, §4, §5

The next data set has as its system MDCK-MDR1 cells. Put plainly: Bidirectional MDCK-MDR1 permeability assay. The data set is classed as in vitro ADME. On the procedure:
as §1
Bidirectional MDCK-MDR1 permeability assay. MDCK-mdr1 cells at passage 5 were seeded onto permeable polycarbonate supports in 12-well Costar@ Transwell® plates and allowed to grow and differentiate for 3 days. On day 3, culture medium (DMEM supplemented with 10% FBS) was removed from both sides of the transwell inserts and cells were rinsed with warm HBSS. After the rinse step, the chambers were filled with warm transport buffer (HBSS containing 10 mM HEPES, 0.25% BSA, pH 7.4) and the plates were incubated at 37° C. for 30 min prior to TEER (Trans Epithelial Electric Resistance) measurements.
The buffer in the donor chamber (apical side for A-to-B assay, basolateral side for B-to-A assay) was removed and replaced with the working solution (10 μM test article in transport buffer). The plates were then placed at 37° C. under light agitation. At designated time points (30, 60 and 90 min), an aliquot of transport buffer from the receiver chamber was removed and replenished with fresh transport buffer. Samples were quenched with ice-cold ACN containing internal standard and then centrifuged to pellet protein. Resulting supernatants are further diluted with 50/50 ACN/H2O(H2O only for Atenolol) and submitted for LC-MS/MS analysis. Reported apparent permeability (Papp) values were calculated from single determination. Atenolol and propranolol were tested as low and […] permeability references.
The apparent permeability (Papp, measured in cm/s) of a compound is determined according to the following formula:
[formula] • dQ/dt is the net rate of appearance in the receiver compartment • A is the area of the Transwell measured in cm^2 (1.12 cm^2) • Ci is the initial concentration of compound added to the donor chamber • 60 is the conversion factor for minutes to seconds. In Vivo Pharmacology.

Data set [3] has as its target T1, NPFF1 receptor (human NPFFR1 in CHO-RD-HGA16 cells) (Homo sapiens, UniProt Q9GZQ6).
T1 construct: expressed in transfected cells
Put plainly: Calcium mobilization functional Ke assay, NPFF1. The data set is classed as cell-based. As to conditions: for preference / selectivity for NPFF1 over NPFF2: from calcium mobilization Ke values. In general terms: Calcium flux is commonly read through the fluorescence of an indicator in the cells.

Data set [4] has as its target T2, NPFF2 receptor (CHO-hNPFFR2 membranes) (Homo sapiens, UniProt Q9Y5X5).
T2 construct: purchased PerkinElmer RBHNF2M400UA; host or cells: CHO cell membranes
Put plainly: Radioligand binding assay, [125I]NPFF, NPFF2. As to conditions: Table 5; [125I]NPFF displacement. On the procedure:
(§6) Radioligand binding assay. Binding assays were performed according to PerkinElmer's protocol in a final volume of 500 μL of assay buffer (50 mM Tris-HCl, 1 mM MgCl2, 60 mM NaCl, 0.5% BSA, pH 7.4). […] After incubating at 27° C. for 120 minutes, the binding assay was terminated by vacuum filtration onto Unifilter GF/C glass-fiber filters (pre-soaked in 0.1% PEI) using a Brandel (Gaithersburg, MD, USA) 96-well harvester, followed by three washes with ice-cold wash buffer (50 mM Tris-HCl, 0.1% BSA, pH 7.4). The filter plate was dried for 1 hr at 55° C. Microscint 20 (50 μL) was added to each well and filter-bound radioactivity was counted on a Packard TopCount NXT microplate scintillation and luminescence counter.
(§7) Data were fit to a one site (fit Ki) competitive binding model, log EC50=log(10^log Ki*(1+RadioligandNM/HotKdNM)), to generate Ki values for the test compounds using GraphPad Prism (GraphPad Software, Inc., San Diego CA).

The next data set relates to Sprague-Dawley rats. Put plainly: Fentanyl-induced hyperalgesia model in rats (von Frey paw withdrawal threshold). The format is in vivo, rat. Particulars: day 1 after fentanyl, i.p., cumulative doses 3.2-32 mg/kg.
Data set [5] addresses T3, NPFF2 receptor (human NPFFR2 in CHO-RD-HGA16 cells) (Homo sapiens, UniProt Q9Y5X5).
T3 construct: expressed in transfected cells
Put plainly: Calcium mobilization functional Ke assay, NPFF2. The format is cell-based.

Data set [6] deals with T4, NPFF1 receptor (CHO-hNPFFR1 membranes) (Homo sapiens, UniProt Q9GZQ6).
T4 construct: purchased PerkinElmer RBHNF1M400UA; host or cells: CHO cell membranes
Put plainly: Radioligand binding assay, [125I]NPFF, NPFF1. Particulars: Table 5; [125I]NPFF displacement. On the procedure:
as §6, §7

The next data set in a line: Kinetic solubility assay. The format is physicochemical. On the procedure:
as §1
Kinetic solubility assay. A 10 μL of test compound stock solution (10 mM DMSO) was combined with 490 μL of PBS (potassium phosphate monobasic 1 mM, sodium phosphate dibasic 3 mM and sodium chloride 155 mM buffer). The solution was agitated on a VX-2500 multi-tube vortexer (VWR) for 2 hours at room temperature. Following agitation, the sample was filtrated on a glass-fiber filter (1 μm) and the eluate was diluted 200-fold with a mixture of acetonitrile: water (1:1). On each experimental occasion, nicardipine and imipramine were assessed as reference compounds for low and high solubility, respectively. All samples were assessed in triplicate and analyzed by LC-MS/MS using electrospray ionization against standards prepared in the same matrix.

Where [7] appears, read: Table 6, MDCK-MDR1, 10 μM test article.
The mark [8] stands for this setting: Table 1, mean ± SEM, apparent dissociation constant vs NPFF, read-out: NPFF1 Ke.
Setting [9] is: calcium mobilization assay, read-out: NPFF1 Ke.
The mark [10] stands for this setting: Table 3, mean ± SEM, read-out: NPFF1 Ke.
The mark [11] stands for this setting: Table 3, mean ± SEM, read-out: NPFF2 Ke.

Converted amounts (≈) assume the structure as drawn. “And” between values parts separate entries of the source, which are not always exact repeats. Identical values can stand only once. Like-named read-outs stand apart in the source and are kept apart here. Bounds are passed on as bounds.

Results on six compounds are retold here after patent publication US12390446B2 (RESEARCH TRIANGLE INSTITUTE, priority 2017, dated 2025).

Chain of NPFF2 receptor (human NPFFR2-CHO cells) (Q9Y5X5 whole entry): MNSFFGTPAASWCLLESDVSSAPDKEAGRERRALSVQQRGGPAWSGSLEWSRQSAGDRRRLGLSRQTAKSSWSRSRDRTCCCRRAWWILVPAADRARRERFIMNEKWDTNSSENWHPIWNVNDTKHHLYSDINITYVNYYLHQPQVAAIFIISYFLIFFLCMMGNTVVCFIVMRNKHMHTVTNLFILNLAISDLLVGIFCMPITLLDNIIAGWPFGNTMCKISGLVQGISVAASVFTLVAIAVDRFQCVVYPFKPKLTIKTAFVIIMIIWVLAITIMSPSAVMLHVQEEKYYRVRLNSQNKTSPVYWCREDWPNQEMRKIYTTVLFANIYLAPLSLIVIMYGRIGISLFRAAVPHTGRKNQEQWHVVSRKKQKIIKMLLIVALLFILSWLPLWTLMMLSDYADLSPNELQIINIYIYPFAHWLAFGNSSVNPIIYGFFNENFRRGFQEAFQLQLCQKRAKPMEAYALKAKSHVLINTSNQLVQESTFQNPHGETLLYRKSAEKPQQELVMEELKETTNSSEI
T2 sequence (Q9Y5X5 whole entry): as above
T3 sequence (Q9Y5X5 whole entry): as above
Chain of NPFF1 receptor (human NPFFR1-CHO cells) (Q9GZQ6 whole entry): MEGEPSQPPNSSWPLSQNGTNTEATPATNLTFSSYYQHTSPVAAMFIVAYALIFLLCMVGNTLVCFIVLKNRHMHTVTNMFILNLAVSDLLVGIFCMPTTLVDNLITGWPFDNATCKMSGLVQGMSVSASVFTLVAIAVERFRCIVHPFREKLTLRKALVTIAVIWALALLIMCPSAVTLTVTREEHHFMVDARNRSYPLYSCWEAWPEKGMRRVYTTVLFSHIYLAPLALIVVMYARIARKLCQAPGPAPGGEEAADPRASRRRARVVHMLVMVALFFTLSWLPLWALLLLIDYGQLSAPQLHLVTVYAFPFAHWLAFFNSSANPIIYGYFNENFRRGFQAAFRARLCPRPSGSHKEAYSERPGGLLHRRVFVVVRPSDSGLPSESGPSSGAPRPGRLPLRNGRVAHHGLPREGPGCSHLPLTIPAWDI
T1 sequence (Q9GZQ6 whole entry): as above
T4 sequence (Q9GZQ6 whole entry): as above

As for `CCCCCNC(=O)[C@@H]1C[C@H](NCc2ccc(OC)cc2)CN1Cc1ccccc1Cl` [Compound 16, (2S,4S)-1-[(2-Chlorophenyl)methyl]-4-{[(4-methoxyphenyl)methyl]amino}-N-pentylpyrrolidine-2-carboxamide], the “Hill slope of NPFF + compound curve, cAMP assay, NPFF1 cells” value in data set [1] was found to be 1.3. Further, the Kb in data set [1] came to 340 ± 80 nM; in [2] it was 2150 nM; in [3] (setting [8]) it was 720 ± 10 nM; in data set [3] (setting [9]) it was 720 nM; in data set [5] (Table 1, mean ± SEM, apparent dissociation constant vs NPFF, read-out: NPFF2 Ke), 3090 nM. Besides, in data set [2], the “Hill slope of NPFF + compound curve, cAMP assay, NPFF2 cells” value is 1.3. For the same compound, in the data set with MDCK-MDR1 cells (MDCK-MDR1), the “BBB permeability” value is “moderate”. The “rate B to A” value in the data set on MDCK-MDR1 cells (MDCK-MDR1) worked out at 6.7e-06 cm/s. Moreover, in the data set on MDCK-MDR1 cells (MDCK-MDR1), the “rate apical (A) to basolateral (B)” value stood at 7.6e-06 cm/s. In the data set on MDCK-MDR1 cells (setting [7]), the “Papp A-to-B” value is 7.6 10^−6 cm/sec. Further, the “Papp B-to-A” value with MDCK-MDR1 cells (setting [7]) was 6.7 10^−6 cm/sec. In addition, the Efflux ratio in the data set on MDCK-MDR1 cells (Table 6, PB→A/PA→B) came to 0.9. Further, in the data set on MDCK-MDR1 cells (from efflux ratio), the “Pgp substrate” value is on record as “not Pgp substrates”. Moreover, in data set [3], the “Hill slope of NPFF + compound curve, calcium mobilization, NPFF1 cells” value was found to be 1.7. For the same compound, the “preference / selectivity for NPFF1 over NPFF2” value in data set [3] was over 4 fold. For the same compound, the Ki – broadly, a dissociation constant, usually derived from enzyme kinetics or from competition with a known ligand – was found to be 1440 nM in data set [4] and 890 ± 50 nM in data set [6]. In addition, the “effect on PWT” value in the data set with Sprague-Dawley rats is listed as “dose-dependently increased PWT”. Further, in [5], the “Hill slope of NPFF + compound curve, calcium mobilization, NPFF2 cells” value turned out to be 1.1. Besides, the “NPFF2 Ke” value in data set [5] (calcium mobilization assay) is 3,090 nM. Further, the solubility (usually the dissolved amount per volume that the medium holds) in “Kinetic solubility assay” is “good and moderate”; in the data set “Kinetic solubility assay” (Table 6, kinetic solubility in PBS, free base, Mean ± % CV), 146.8 ± 6.9 µM (≈ 65.2 µg/mL). This compound also had a kinetic solubility in “Kinetic solubility assay” (Mean±% CV, free base) of 146.8 ± 6.9 µM (≈ 65.2 µg/mL).

For the compound `O=C(NCCc1ccc([N+](=O)[O-])cc1)[C@@H]1C[C@H](NCc2ccc(F)cc2)CN1Cc1ccccc1Cl` [Compound 64, (2S,4S)-1-[(2-Chlorophenyl)methyl]-4-{[(4-fluorophenyl)methyl]amino}-N-[2-(4-nitrophenyl)ethyl]pyrrolidine-2-carboxamide], the Kb in data set [1] is 1440 nM; in [2], 960 nM; in data set [3] (setting [10]), 960 ± 690 nM; in data set [5] (setting [11]) it was over 10000 nM; in data set [5] (Table 5, read-out: Calcium mobilization assay Ke NPFF2), over 10000 nM. In data set [3], the “preference / selectivity for NPFF1 over NPFF2” value is listed as “more than 10 fold”.

Regarding `COc1ccc(CN[C@H]2C[C@@H](C(=O)NCCc3ccccc3)N(Cc3ccccc3Cl)C2)cc1` [Compound 24, (2S,4S)-1-[(2-Chlorophenyl)methyl]-4-{[(4-methoxyphenyl)methyl]amino}-N-(2-phenylethyl)pyrrolidine-2-carboxamide], the Kb in data set [1] was 770 ± 120 nM; in [2], 3790 nM; in data set [3] (setting [8]), 850 ± 140 nM; in [3] (setting [9]), 850 nM; in data set [5] (read-out: Calcium mobilization assay Ke NPFF2), over 10000 nM; in data set [5] (read-out: NPFF2 Ke) it was > 10000 nM and 9390 nM. Further, the “NPFF1 Ke” value in data set [3] (Table 4, mean ± SEM) stood at 850 ± 140 nM. Further, the “Calcium mobilization assay Ke NPFF1” value in [3] (Table 5) stood at 850 ± 140 nM. For the same compound, the figures for the Ki in data set [4] and in data set [6] were 1230 nM and 710 ± 20 nM, respectively.

Turning to `O=C(NCCc1ccc([N+](=O)[O-])cc1)[C@@H]1C[C@H](NCc2ccc(Cl)cc2)CN1Cc1ccccc1Cl` [Compound 63, (2S,4S)-1-[(2-Chlorophenyl)methyl]-4-{[(4-chlorophenyl)methyl]amino}-N-[2-(4-nitrophenyl)ethyl]pyrrolidine-2-carboxamide], the Kb in [1] turned out to be 1550 nM; in data set [2], 1760 nM; in [3] (setting [10]), 680 ± 180 nM; in [3] (Table 5, read-out: Calcium mobilization assay Ke NPFF1) it was 510 ± 180 nM; in data set [5] (setting [11]) it was 1860 nM.

With `COc1ccc(CCNC(=O)[C@@H]2C[C@H](NCc3ccc(OC)cc3)CN2Cc2ccccc2Cl)cc1` [Compound 26, (2S,4S)-1-[(2-Chlorophenyl)methyl]-N-[2-(4-methoxyphenyl)ethyl]-4-{[(4-methoxyphenyl)methyl]amino}pyrrolidine-2-carboxamide], the Kb in [1] (footnote c: pre-incubation of antagonist and receptor 1 hour) was 570 ± 150 nM; in [2] it was 2560 nM; in data set [3] (setting [8]), 670 ± 60 nM; in data set [3] (setting [9]), 670 nM; in data set [5] (Table 1, footnote c: pre-incubation of antagonist and test compound 45 min or 1 hr, read-out: NPFF2 Ke), 1750 nM. Also, the values for the Ki in [4] and in data set [6] were 1460 nM and 920 ± 30 nM, respectively.

For the compound `COc1ccc(CN[C@H]2C[C@@H](C(=O)NCCc3ccc(F)c(F)c3)N(Cc3ccccc3Cl)C2)cc1` [Compound 34, (2S,4S)-1-[(2-Chlorophenyl)methyl]-N-[2-(3,4-difluorophenyl)ethyl]-4-{[(4-methoxyphenyl)methyl]amino}pyrrolidine-2-carboxamide], the Kb in data set [1] is 570 ± 170 nM; in data set [2], 2160 nM; in [3] (setting [8]), 610 ± 130 nM; in [3] (setting [9]) it was 610 nM. The Ki stood at 1490 nM in [4] and 560 ± 40 nM in data set [6].
